Assay results taken from ChEMBL document CHEMBL3769332, “Affinity-Based Fluorescence Polarization Assay for High-Throughput Screening of Prolyl Hydroxylase 2 Inhibitors” (ACS Med Chem Lett, 2015).

Target: Egl nine homolog 1 (Homo sapiens, UniProt Q9GZT9)
Sequence (Q9GZT9 whole entry): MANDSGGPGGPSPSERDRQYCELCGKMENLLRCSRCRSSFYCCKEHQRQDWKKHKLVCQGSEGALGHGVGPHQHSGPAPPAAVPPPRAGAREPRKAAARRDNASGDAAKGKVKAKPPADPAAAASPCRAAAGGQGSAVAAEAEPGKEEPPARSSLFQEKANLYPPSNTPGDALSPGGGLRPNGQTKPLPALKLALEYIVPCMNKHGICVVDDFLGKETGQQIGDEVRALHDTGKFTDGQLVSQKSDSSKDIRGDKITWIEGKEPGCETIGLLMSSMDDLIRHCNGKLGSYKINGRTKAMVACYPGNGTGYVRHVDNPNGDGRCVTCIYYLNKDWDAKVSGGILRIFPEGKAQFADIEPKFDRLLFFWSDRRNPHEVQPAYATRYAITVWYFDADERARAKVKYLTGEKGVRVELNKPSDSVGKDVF

IC50 [nM] | SMILES
876 | O=c1c(-n2ccnn2)c[nH]n1-c1cc(N2CCOCC2)ncn1 [MOLIDUSTAT]
890 | Cc1ccc(-c2cnc(C(=O)NCC(=O)O)c(O)c2)cc1
